Values joined by “and” are separate entries in the source; they are usually repeats but may differ in a detail not shown here. Equal entries are not always repeated. “Also recorded” adds a separate entry of the source. Where two headings read alike, the source gives them in different places.
How the values were obtained:
Hsp70-GST [1] = molecular target: T1, Hsp70-GST (Homo sapiens, UniProt P0DMV8); test: Microarray-based screen of the focused library against Hsp70-GST (fluorescence, anti-GST DyLight 649); type: binding; conditions: fluorescence intensity on the microarray, mean of four spots, SD between 5% and 10%; PNA-tagged library member
T1 construct: purchased Signal Chem H34-54G
T1 sequence (P0DMV8 whole entry): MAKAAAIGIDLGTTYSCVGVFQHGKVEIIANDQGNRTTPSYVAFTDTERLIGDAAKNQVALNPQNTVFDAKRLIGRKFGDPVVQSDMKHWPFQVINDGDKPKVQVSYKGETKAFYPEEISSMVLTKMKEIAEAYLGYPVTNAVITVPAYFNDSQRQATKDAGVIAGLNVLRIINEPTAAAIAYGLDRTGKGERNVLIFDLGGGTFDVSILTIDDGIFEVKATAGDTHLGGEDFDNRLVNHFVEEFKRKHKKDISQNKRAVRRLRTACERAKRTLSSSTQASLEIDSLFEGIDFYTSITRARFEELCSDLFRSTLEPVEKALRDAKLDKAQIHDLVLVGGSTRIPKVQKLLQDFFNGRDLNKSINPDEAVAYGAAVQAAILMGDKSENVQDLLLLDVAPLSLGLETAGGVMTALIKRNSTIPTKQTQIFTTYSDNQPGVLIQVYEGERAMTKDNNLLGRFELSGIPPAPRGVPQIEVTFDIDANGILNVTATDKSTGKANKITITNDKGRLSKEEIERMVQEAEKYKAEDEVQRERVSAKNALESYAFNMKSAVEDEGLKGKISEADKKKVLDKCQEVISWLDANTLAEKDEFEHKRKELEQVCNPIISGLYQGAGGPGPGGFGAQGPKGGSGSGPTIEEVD
Excerpt: A microarray pairing 125 biologically validated fragments[11] (FDA-approved drugs, bioactive natural products or fragments thereof) with a library of 500 heterocycles was used as a preliminary screen.[6] The microarray contained 62 500 unique DNA sequences that combinatorially paired both fragment libraries. […] The result from this screen with Hsp70 is shown in Fig. 2, arranged with fragments from the 125-fragment set and 500-fragment set on horizontal and vertical lines, respectively. The recurrence of binding across a line reflects the fitness of a given fragment. Thus, line intensities were used to rank the different fragments. What is interesting is that lines across the library of the 500-fragment set (4B, 24B, 44B, 84B, 124B, …) shared a common structural motif (biaryl-ether; Fig. 2). […] It is noteworthy that this biaryl moiety is part of a previously reported Hsp70 ligand (MAL3-101).[13],[14] […] Although screening fragments as conjugates to a nucleic acid tag restricts their binding mode to a particular orientation (the orientation that will position the linker to the tag toward the outside of the binding pocket), it greatly facilitates the synthesis of the corresponding covalent adduct combining both fragments, as the same chemistry that was used to link the fragments to the tag can be used to covalently pair them. Nonetheless, the linker length and conformational bias must be identified experimentally. We reasoned that the identified fragments could be used as the starting point for a focused library covalently pairing the fragments. This would allow for supplementing the selected fragment set with new entities (near neighbours) and enriching the local diversity space around these initial hits. Such iterative processes are highly efficient in sifting through a large diversity space. Following this strategy, we designed an Hsp70-focused library of 10 000 members using 20 fragments A × 5 different linkers with different lengths and geometrical constraints × 100 fragments B. The 100-fragment set contained 90 entities that were not present in the original screen. To be viable, an iterative library synthesis approach should be leveraged on chemistry that is compatible with SPPS and can be performed by automated PNA-encoded synthesis. As shown in Scheme 1, this was achieved through the use of three orthogonal amino group masking strategies (Mtt, Fmoc, and azide) that enabled selective chemical reactions at both sites of the linker joining the fragment and the encoding site. Thus, a resin derivatized with lysine with orthogonal protecting groups (Mtt and N3) was split into 100 pools and deprotected on one end (Mtt deprotection using HFIP), and the different linkers to join both fragments were introduced by standard peptide coupling method, affording the two sites for fragment coupling protected by Fmoc and Mtt, respectively.[15] The fragments were coupled using two different chemistries: for fragments containing a carboxylic acid, DIC/HOBt was used; for fragments with an amino group, hydroxyl, or aniline, the amino-functionalized linker was first treated with 4-nitrophenylchloroformate and the resulting carbamate coupled with the fragment. The azide was next reduced and the first 100 pools were encoded with a 7mer Boc-protected PNA sequence. The resins were mixed and split to introduce the second encoding 7mer sequence followed by deprotection of Mtt and the introduction of the corresponding second fragments. The success of each fragment coupling and encoding step was verified by MALDI analysis of an analytical sample. Cleavage of the final library and hybridization afforded the spatially resolved 10 000-member Hsp70-focused library. A slide containing 4-fold redundancy of each DNA sequence randomly distributed on the array was used to have four data points for each small molecule–target interaction, thus allowing a statistical analysis of the hits. The array was screened under three different conditions: Hsp70, Hsp70 + Hsp40, and Hsp70 + ATP. […]

Hsp70 [2] = molecular target: T2, Hsp70 (Homo sapiens, UniProt P0DMV8); test: SPR affinity measurement, biotinylated compounds immobilized on a streptavidin chip, Hsp70 analyte; type: binding; conditions: compound immobilized on streptavidin chip, values in parentheses have chi2 > 10
T2 sequence (P0DMV8 whole entry): as above

Hsp90 [3] = test: SPR affinity measurement, biotinylated compounds immobilized on a streptavidin chip, Hsp90 analyte; type: binding; conditions: compound immobilized on streptavidin chip, values in parentheses have chi2 > 10
Hsp70 [4] = molecular target: T2, Hsp70; parameters: method as in PMID 15448148; conditions: cited from earlier work
Hsp70 [5] = molecular target: T2, Hsp70; test: Fluorescence polarization displacement assay with 1-FITC; type: binding; conditions: 1-FITC 25 nM, Hsp70 100 nM; R2 = 0.998; read-out: Affinity for Hsp70 by fluorescence polarization displacement (IC50)
Hsp70/Hsp40 = molecular target: T3, Hsp70/Hsp40 (Homo sapiens, UniProt P0DMV8); test: Malachite Green Hsp70 ATPase assay; type: biochemical; conditions: for inhibition at 1 µM: 1 molar equivalent to Hsp70 (1 μM), read-out: ATPase inhibition in dose response; for ATPase inhibition: 200 molar equivalence of inhibitor (200 μM), Hsp70/Hsp40 1 μM, ATP 1 mM
T3 construct: purchased Novus Biologicals NBC1-18367
T3 sequence (P0DMV8 whole entry): as above

Hsp70 [6] = molecular target: T2, Hsp70; parameters: method as in PMID 16806043; conditions: read-out: affinity of Hsp70 for ligand; cited from earlier work
[7] = molecular target: T4, Heat shock 70 kDa protein 1A/1B (Homo sapiens, UniProt P0DMV8); test: Proteomic (MS-MS) analysis of pull-down from HEK crude cell lysate; type: binding; conditions: Hsp71_HUMAN in pull-down from HEK crude cell lysate
T4 construct: endogenous in cells; host or cells: HEK293-T
T4 sequence (P0DMV8 whole entry): as above

carbonic anhydrase = molecular target: T5, carbonic anhydrase (Homo sapiens, UniProt P00918); test: Pull-down from crude HEK cell lysates, Western blot for carbonic anhydrase (negative control); type: binding; conditions: HEK lysate, negative control protein
T5 construct: endogenous in cells; host or cells: HEK293-T

Hsp70-GST [8] = molecular target: T1, Hsp70-GST; test: Protein pull-down with ligand immobilized on streptavidin magnetic beads, Hsp70; type: binding; conditions: recombinant Hsp70-GST 300 nM, SDS PAGE
Hsp90 [9] = test: Protein pull-down with ligand immobilized on streptavidin magnetic beads, Hsp90; type: binding; conditions: recombinant Hsp90 300 nM, SDS PAGE
Hsp70 [10] = molecular target: T2, Hsp70; test: Pull-down of Hsp70 from crude HEK cell lysates, Western blot; type: binding; conditions: HEK lysate, Western blot with anti-Hsp70 antibody

Row | Structure (SMILES) | FU microarray HSP70-GST (Hsp70-GST [1]) | Kd (Hsp70 [2]) | Kd (Hsp90 [3]) [nM] | further results
1 | COc1ccc(C=CC(=O)NCC(NC(=O)c2cccc(NS(=O)(=O)c3ccc(-c4ccccc4)cc3)c2)C(=O)NCCCCC(NC(=O)COCCOCCNC(=O)CCCCC2SCC3NC(=O)NC32)C(N)=O)cc1OC (stereo not drawn) [Compound 14a] | 28 588 FU | 2.88 nM | 52.8 | –
2 | NC(=O)C(CCCCNC(=O)C(CNC(=O)c1ccc2[nH]nc(Br)c2c1)NC(=O)c1cccc(NC(=O)CCC(=O)c2ccc(-c3ccccc3)cc2)c1)NC(=O)COCCOCCNC(=O)CCCCC1SCC2NC(=O)NC21 (stereo not drawn) [Compound 9a] | 29 024 FU | 0.64 nM | 14.7 | –
3 | COc1ccc(C=CC(=O)NCC(NC(=O)c2cccc(NC(=O)CCC(=O)c3ccc(-c4ccccc4)cc3)c2)C(=O)NCCCCC(NC(=O)COCCOCCNC(=O)CCCCC2SCC3NC(=O)NC32)C(N)=O)cc1OC (stereo not drawn) [Compound 8a] | 27 982 FU | 0.8 nM | 16.9 | –
4 | CCCCCCN(C(=O)CCCCCN1C(=O)NC(c2ccc(-c3ccccc3)cc2)C(C(=O)OCc2ccccc2)=C1C)C(C(=O)NCCCC)c1ccc(OCC(=O)OC)c(C(=O)OC)c1 (stereo not drawn) [MAL3-101] | – | – | – | effect on Hsp70 ATPase activity (Hsp70 [4]): stimulate this activity
5 | Cc1ccc(C(=O)NCC(NC(=O)c2cccc(NS(=O)(=O)c3ccc(Oc4ccccc4)cc3)c2)C(=O)NCCCCC(NC(=O)COCCOCCNC(=O)CCCCC2SCC3NC(=O)NC32)C(N)=O)cc1[N+](=O)[O-] (stereo not drawn) [Compound 15a] | 28 732 FU | 1.3 nM | 35.3 | –
6 | Cc1ccc(/C=C/C(=O)NCC(NC(=O)c2ccc(NC(=O)CCC(=O)c3ccc(-c4ccccc4)cc3)cc2)C(N)=O)cc1 (stereo not drawn) [Compound 1b] | – | – | – | IC50 (Hsp70 [5]): 31 nM; inhibition at 1 µM (Hsp70/Hsp40): > 50%; ATPase inhibition (Hsp70/Hsp40): complete inhibition
7 | Nc1ncnc2c1ncn2[C@@H]1O[C@H](COP(=O)(O)OP(=O)(O)O)[C@@H](O)[C@H]1O [ADP] | – | – | – | Kd (Hsp70 [6]): 260 nM
8 | CSc1nnc(CCCOC(=O)NCC(NC(=O)CC2=C(C)C(=Cc3ccc([S+](C)[O-])cc3)c3ccc(F)cc32)C(=O)NCCCCC(NC(=O)COCCOCCNC(=O)CCCCC2SCC3NC(=O)NC32)C(N)=O)n1-c1ccc(Cl)cc1Cl (stereo not drawn) [Compound 4a] | 28 566 FU | 2.69 nM | 10.7 | –
9 | CCC(COC(=O)NCCCCC(NC(=O)CC1=C(C)C(=Cc2ccc([S+](C)[O-])cc2)c2ccc(F)cc21)C(=O)NCCCCC(NC(=O)COCCOCCNC(=O)CCCCC1SCC2NC(=O)NC21)C(N)=O)c1ccccc1 (stereo not drawn) [Compound 13a] | 27 215 FU | 1.16 nM | 29.5 | –
10 | Cc1oncc1C(=O)Nc1ccc(O)c(C(=O)NCC(NC(=O)c2ccc(NC(=O)CCC(=O)c3ccc(-c4ccccc4)cc3)cc2)C(N)=O)c1 (stereo not drawn) [Compound 2b] | – | – | – | inhibition at 1 µM (Hsp70/Hsp40): > 50%; ATPase inhibition (Hsp70/Hsp40): complete inhibition
11 | Cc1oncc1C(=O)Nc1ccc(O)c(C(=O)NCC(NC(=O)c2ccc(NC(=O)CCC(=O)c3ccc(-c4ccccc4)cc3)cc2)C(=O)NCCCCC(NC(=O)COCCOCCNC(=O)CCCCC2SCC3NC(=O)NC32)C(N)=O)c1 (stereo not drawn) [Compound 2a] | 28 653 FU | 1.58 nM | – | % Protein Coverage [7]: 24.8%; retention of carbonic anhydrase from crude cell lysates (carbonic anhydrase): no carbonic anhydrase; capture of Hsp70 on streptavidin magnetic beads (Hsp70-GST [8]): retained Hsp70; KD HSP90 (Hsp90 [3]): no measurable affinity; also recorded: Low binding; capture of Hsp90 on streptavidin magnetic beads (Hsp90 [9]): not Hsp90; retention of Hsp70 from crude cell lysates (Hsp70 [10]): retained Hsp70
12 | CSc1nnc(CCCOC(=O)NCCCCC(NS(=O)(=O)c2ccc(-c3ccccc3)cc2)C(=O)NCCCCC(NC(=O)COCCOCCNC(=O)CCCCC2SCC3NC(=O)NC32)C(N)=O)n1-c1ccc(Cl)cc1Cl (stereo not drawn) [Compound 6a] | 28 958 FU | 2.33 nM | 18.7 | –

Now from value to compound, other results behind:

Row | FU microarray HSP70-GST (Hsp70-GST [1]) | Kd (Hsp70 [2]) | Kd (Hsp90 [3]) [nM] | Structure (SMILES) | further results
13 | 27 941 FU | 12 nM and 12.1 nM | 5.6 | CC(C(=O)Nc1cccc(C(=O)NC(CNC(=O)c2ccc3[nH]nc(Br)c3c2)C(=O)NCCCCC(NC(=O)COCCOCCNC(=O)CCCCC2SCC3NC(=O)NC32)C(N)=O)c1)c1cccc(Oc2ccccc2)c1 (stereo not drawn) [Compound 11a] | –
14 | 24 143 FU | 1.34 nM | 3.17 | NC(=O)C(CCCCNC(=O)C(CCCCNC(=O)c1ccc2[nH]nc(Br)c2c1)NS(=O)(=O)c1ccc(-c2ccccc2)cc1)NC(=O)COCCOCCNC(=O)CCCCC1SCC2NC(=O)NC21 (stereo not drawn) [Compound 7a] | –
15 | 28 447 FU | 0.38 nM | 5.44 | NC(=O)C(CCCCNC(=O)C(CNC(=O)c1cccc(-c2cccnc2)c1)NC(=O)c1ccc(NC(=O)COCC(=O)N2CCCN(S(=O)(=O)c3cccc4cnccc34)CC2)cc1)NC(=O)COCCOCCNC(=O)CCCCC1SCC2NC(=O)NC21 (stereo not drawn) [Compound 5a] | –
16 | 28 174 FU | 2.02 nM | 10.1 | CSc1nnc(CCCOC(=O)NCC(NC(=O)CCC(=O)c2ccc(-c3ccccc3)cc2)C(=O)NCCCCC(NC(=O)COCCOCCNC(=O)CCCCC2SCC3NC(=O)NC32)C(N)=O)n1-c1ccc(Cl)cc1Cl (stereo not drawn) [Compound 12a] | –
17 | 28 961 FU | 1.88 nM | 2.97 | COc1ccc(C=CC(=O)NCC(NC(=O)c2ccc(NC(=O)COCC(=O)NC(C)COc3c(C)cccc3C)cc2)C(=O)NCCCCC(NC(=O)COCCOCCNC(=O)CCCCC2SCC3NC(=O)NC32)C(N)=O)cc1OC (stereo not drawn) [Compound 10a] | –
